Values after ≈ are worked out from the molar mass of the structure shown.
Legend:
NHEK-UVB-IL-8 = test: UVB-induced IL-8 release from NHEKs (ELISA); format: cell-based, human
Protocol: (§1) Primary normal human epidermal keratinocytes (NHEKs) and dermal fibroblasts (NHDFs) were purchased from ThermoFisher (Carlsbad, CA, USA) and cultured in EpiLife™ medium (NHEKs) supplemented with Human Keratinocyte Growth Supplement (HKGS) or DMEM (NHDFs) + 10% FBS. All cell types were seeded in plates with growth factor-supplemented medium for 24 h and later media was replaced with growth factor-depleted media for an additional 24 h before treatments and grown at normal conditions (5% CO2; 37 °C).
(§2) Cells were pre-incubated for 2–6 h with test materials (1% v/v ethanol vehicle) in fresh growth factor-depleted media in triplicates. NHEKs were induced by 5 ng/mL TPA for 24 h or irradiated with 25 mJ/cm^2 (15 s) broadband 305–12 nm UVB (Daavlin; Bryan, OH, USA) without test materials and incubated for an additional 18 h. NHDFs were irradiated with 12.5 J/cm^2 UVA (350–12 nm; 40 min) and later incubated without test materials for an additional 18 h. Media supernatants were harvested after induction and used to measure levels of Interleukin-6 (IL-6), Interleukin-8 (IL-8), collagenase (pro-MMP1) or tumor necrosis factor-α (TNF-α) by sandwich ELISA kits (BD Biosciences; San Jose, CA, USA or R&D Systems; Minneapolis, MN, USA). Cells were subjected to viability tests by MTS reduction assay (Promega; Madison, WI, USA).
(§3) Statistical significance was determined by ANOVA followed by a Dunnett multiple comparisons test using p-values less than 0.05 as a significant difference. For all biochemical measurements and cytokine levels, samples were assayed in triplicate. Cytokine dose–response curves were generated by fitting data with the Hill, three-parameter equation using the Sigma Plot software, from which the IC50 and maximum inhibition were determined.

NHEK-UVB-TNFα = test: UVB-induced TNFα release from NHEKs (ELISA); format: cell-based, human
Protocol: as §1, §2, §3

NHDFs-UVA-IL-6 = test: UVA-induced IL-6 release from NHDFs (ELISA); format: cell-based, human
Protocol: as §1, §2, §3

[1] = biological target: T1, PME-1 (Protein phosphatase methylesterase 1) (Homo sapiens, UniProt Q9Y570); test: Demethylation of PP2A by PME-1, radioactive filter binding assay; format: biochemical; conditions: GSE flavonoids / grape seed components; read-out: IC50, PP2A demethylation activity assay
T1 sequence (Q9Y570 1-386): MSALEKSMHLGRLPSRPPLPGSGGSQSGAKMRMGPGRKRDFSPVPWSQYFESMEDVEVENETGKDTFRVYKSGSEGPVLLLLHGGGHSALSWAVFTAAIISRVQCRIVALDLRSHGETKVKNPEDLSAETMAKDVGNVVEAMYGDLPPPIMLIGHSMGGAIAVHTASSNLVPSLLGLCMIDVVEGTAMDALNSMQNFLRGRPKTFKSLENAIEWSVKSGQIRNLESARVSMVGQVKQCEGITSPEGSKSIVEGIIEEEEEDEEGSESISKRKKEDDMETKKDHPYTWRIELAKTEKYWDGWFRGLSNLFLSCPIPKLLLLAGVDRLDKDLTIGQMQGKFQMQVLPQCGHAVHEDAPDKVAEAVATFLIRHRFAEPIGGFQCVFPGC
Protocol: [^3H]-labeled methylated PP2A AC dimer was prepared by incubating PP2A, LCMT1 and [^3H]-SAM (PerkinElmer; Waltham, MA, USA) in 50 mM MOPS-Na (pH 7.2), 5 mM MgCl2, and 1 mM DTT at room temperature for 1 h. Demethylation of PP2A by PME-1 (Protein phosphatase methylesterase 1) was measured using the radioactive filter binding assay format. 20 nM PME-1 was incubated for 15 min with extract or compound, then 20 nM of [^3H]-labeled methylated PP2A AC dimer was added. Reactions were run at room temperature for 30 min then applied to a 96-well filter plate (MilliporeSigma; Burlington, MA, USA.) containing 30% TCA where proteins were precipitated and separated from the excess of [^3H]-SAM by washing with 70% ethanol. [^3H]-incorporation was measured using TopCount NXT scintillation counter (PerkinElmer; Waltham, MA, USA). IC50 values were generated from dose–response curves using a four-parameter logistic curve fit in SigmaPlot (Systat Software, Inc., Palo Alto, CA, USA).

[2] = Cell-free antioxidant ABTS assay by metmyoglobin; format: biochemical
Text: (§4) Radical scavenging antioxidant assay was estimated using the colorimetric antioxidant assay kit obtained from Cayman Chemical Company (Ann Arbor, MI, USA). ABTS (2, 2′-Azino-bis-[3-ehthylbenzthiazoline sulphonate]) was used as the chromogen, which changes into a colored monocation radical form (ABTS^•+) by metmyoglobin in the presence of hydrogen peroxide, and monitored by measuring absorption at 750 nm using a plate reader (Envision-PerkinElmer; Waltham, MA, USA). Antioxidant inhibition was calculated based on the discoloration of ABTS by serial concentrations of test compounds added simultaneously with myoglobin and hydrogen peroxide. NHDF cells were cultured in DMEM with 10% fetal bovine serum (FBS) and seeded into black wall 96-well plates and incubated for 24 h before treatment. Cells were pre-treated for 3 h with and without test compounds (0.01–3 µM final concentrations) and labeled with 50 µM of dichloro-dihydro-fluorescein diacetate (DCFH-DA). Total fluorescence (Excitation = 485 nm; Emission = 535 nm) was measured after cells were co-incubated for 20 min with 0.1 mM H2O2 and the test compounds. Cell protection against oxidative stress was calculated using the following formula: Cell protection (%) = [(test compound (%) − hydrogen peroxide-only (%))/([…] − untreated control (%))] × 100.

NHDFs intracellular ROS = test: Intracellular antioxidant assay (DCFH-DA) in NHDFs after H2O2 induction; format: cell-based, human; conditions: 3 h pre-incubation
Text: as §4

NHEK-TPA-IL-8 = test: TPA-induced IL-8 release from NHEKs (ELISA); format: cell-based, human; conditions: 5 ng/mL TPA, 24 h
Protocol: as §1
Cells were pre-incubated for 2–6 h with test materials (1% v/v ethanol vehicle) in fresh growth factor-depleted media in triplicates. NHEKs were induced by 5 ng/mL TPA for 24 h or irradiated with 25 mJ/cm^2 (15 s) broadband 305–12 nm UVB (Daavlin; Bryan, OH, USA) without test materials and incubated for an additional 18 h. NHDFs were irradiated with 12.5 J/cm^2 UVA (350–12 nm; 40 min) and later incubated without test materials for an additional 18 h. […]
as §3, with “For all biochemical measurements and cytokine levels, samples were assayed in triplicate.” left out

[3] = Homo sapiens, NHEK, light or radiation study, UVB 25 mJ/cm^2

COc1cc(/C=C/C(=O)O)ccc1O [Ferulic acid]
IC50 NHEK-UVB-IL-8 (NHEK-UVB-IL-8; UVB 25 mJ/cm^2): <0.01 µg/mL | IC50 NHEK-UVB-TNFα (NHEK-UVB-TNFα; UVB 25 mJ/cm^2): <0.01 µg/mL | IC50 NHDFs-UVA-IL-6 (NHDFs-UVA-IL-6; UVA 12.5 J/cm^2): 0.01 µg/mL (≈ 0.0515 µM) | IC50 [1]: > 15 µM

O=C1O[C@H]([C@@H](O)CO)C(O)=C1O [Vitamin C]
IC50 NHEK-UVB-IL-8 (NHEK-UVB-IL-8; UVB 25 mJ/cm^2): >10 µg/mL | IC50 NHEK-UVB-TNFα (NHEK-UVB-TNFα; UVB 25 mJ/cm^2): >10 µg/mL | IC50 NHDFs-UVA-IL-6 (NHDFs-UVA-IL-6; UVA 12.5 J/cm^2): >10 µg/mL | IC50, H2O2-induced free radical ROS production [2]: 10.1 µg/mL (≈ 57.3 µM) | IC50, intracellular oxidative stress (NHDFs intracellular ROS): 0.6 µg/mL (≈ 3.41 µM)

Cc1c(C)c2c(c(C)c1O)CC[C@@](C)(CCC[C@H](C)CCC[C@H](C)CCCC(C)C)O2 [Vitamin E, α-tocopherol]
IC50, H2O2-induced free radical ROS production [2]: 18.6 µg/mL (≈ 43.2 µM) | IC50 (NHDFs intracellular ROS; Homo sapiens, NHDF, read-out: IC50, intracellular oxidative stress): > 100 µg/mL

CC1=C(/C=C/C(C)=C/C=C/C(C)=C/C(=O)O)C(C)(C)CCC1 [ATRA, all-trans retinoic acid]
IC50 (NHEK-UVB-IL-8; [3]): > 1 µg/mL | effect on UVB-induced IL-8 release (in words) (NHEK-UVB-IL-8; highest non-toxic dose tested): did not have any effect | IC50 (NHEK-UVB-TNFα; [3]): > 1 µg/mL | effect on UVB-induced TNFα release (in words) (NHEK-UVB-TNFα; highest non-toxic dose tested): did not have any effect | IC50 (NHDFs-UVA-IL-6; Homo sapiens, NHDF, light or radiation study, UVA 12.5 J/cm^2): > 1 µg/mL | effect on UVA-induced IL-6 release (in words) (NHDFs-UVA-IL-6; highest non-toxic dose tested): did not have any effect

C[C@H]1C[C@H]2[C@@H]3CCC4=CC(=O)C=C[C@]4(C)[C@@]3(F)[C@@H](O)C[C@]2(C)[C@@]1(O)C(=O)CCl [Clobetasol]
IC50 NHEK-TPA-IL-8 (NHEK-TPA-IL-8): 0.0005 ng/mL (≈ 1.22e-06 µM)
